Experimental data reported in ChEMBL document CHEMBL2176953, “Synthesis and evaluation of α-thymidine analogues as novel antimalarials” (J Med Chem, 2012).

Columns and labels:
Plasmodium falciparum = test: Antimalarial activity against erythrocytic stages of Plasmodium falciparum 3D7 infected in human O positive RBC after 48 hrs by SYBR-green assay; type: functional, organism-based; conditions: 3D7, 48 h
[1] = Plasma protein binding in CD1 mouse after 5 hrs
MRC5 = test: Cytotoxicity against human MRC5 cells; type: cell-based
Thymidylate kinase = biological target: T1, Thymidylate kinase (Plasmodium falciparum (isolate 3D7), UniProt Q8I4S1); test: Inhibition of recombinant Plasmodium falciparum TMPK using TMP as substrate by pyruvate kinase and lactate dehydrogenase enzyme coupled assay
T1 sequence (Q8I4S1 whole entry): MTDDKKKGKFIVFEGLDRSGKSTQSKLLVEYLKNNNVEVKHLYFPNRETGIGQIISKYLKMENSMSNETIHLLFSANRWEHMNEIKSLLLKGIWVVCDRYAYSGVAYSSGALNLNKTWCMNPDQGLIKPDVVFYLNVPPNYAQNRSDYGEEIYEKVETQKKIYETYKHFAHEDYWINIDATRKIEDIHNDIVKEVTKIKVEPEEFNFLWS

Cc1cn([C@@H]2C[C@H](O)[C@@H](CNC(=O)Nc3ccc(-c4ccccc4)cc3)O2)c(=O)[nH]c1=O
EC50 (Plasmodium falciparum): 0.29 µM | fraction unbound at 5 h [1]: 0.08

Cc1cn([C@@H]2C[C@H](O)[C@@H](CNC(=O)Nc3ccc(OCc4ccccc4Cl)cc3)O2)c(=O)[nH]c1=O
EC50 (Plasmodium falciparum): 0.028 µM | fraction unbound at 5 h [1]: 0.059 | CC50 (MRC5): 29 µM

Cc1cn([C@@H]2C[C@H](O)[C@@H](CNC(=O)Nc3ccc(Oc4ccccc4)cc3)O2)c(=O)[nH]c1=O
EC50 (Plasmodium falciparum): 0.24 µM | fraction unbound at 5 h [1]: 0.095 | CC50 (MRC5): 44 µM

Cc1cn([C@@H]2C[C@H](O)[C@@H](CNC(=O)Nc3ccc(Br)cc3)O2)c(=O)[nH]c1=O
EC50 (Plasmodium falciparum): 1.5 µM | Ki (Thymidylate kinase): > 1000 µM | CC50 (MRC5): > 50 µM

Cc1cn([C@@H]2C[C@H](O)[C@@H](CNC(=O)Nc3ccc(OCc4ccccc4)cc3)O2)c(=O)[nH]c1=O
EC50 (Plasmodium falciparum): 0.24 µM | fraction unbound at 5 h [1]: 0.188

Cc1cn([C@@H]2C[C@H](O)[C@@H](CNC(=O)Nc3ccc(Cl)cc3)O2)c(=O)[nH]c1=O
EC50 (Plasmodium falciparum): 2.6 µM | Ki (Thymidylate kinase): 114 µM | CC50 (MRC5): > 50 µM

Cc1cn([C@@H]2C[C@H](O)[C@@H](CNC(=O)Nc3cccc(Cl)c3)O2)c(=O)[nH]c1=O
EC50 (Plasmodium falciparum): 4.8 µM | Ki (Thymidylate kinase): 106 µM | CC50 (MRC5): > 50 µM

Cc1cn([C@@H]2C[C@H](O)[C@@H](CNC(=O)Nc3ccc(N4CCCCC4)cc3)O2)c(=O)[nH]c1=O
EC50 (Plasmodium falciparum): 0.34 µM | fraction unbound at 5 h [1]: 0.477

Cc1cn([C@@H]2C[C@H](O)[C@@H](CNC(=S)Nc3ccc(Cl)cc3)O2)c(=O)[nH]c1=O
EC50 (Plasmodium falciparum): 13 µM | Ki (Thymidylate kinase): 90 µM | CC50 (MRC5): > 50 µM

Cc1cn([C@@H]2C[C@H](O)[C@@H](CNC(=O)Nc3ccc(C(C)(C)C)cc3)O2)c(=O)[nH]c1=O
EC50 (Plasmodium falciparum): 2.9 µM | Ki (Thymidylate kinase): 167 µM | CC50 (MRC5): > 50 µM
